{"source": "patent US5234917A", "about": "“Substituted 5-(alkyl)carboxamide imidazoles” (priority 1990, dated 1993)", "system": "pressor response to exogenous angiotensin II", "assay": "Inhibition of Pressor Response to Angiotensin II in Conscious Rats", "format": "in vivo", "conditions": "Rattus norvegicus, mean arterial pressure, 250 mg/kg angiotensin II i.v. as printed, compounds given intravenously or orally at 3 to 300 mg/kg (route not given), read-out: IC50 (dose of compound needed to produce 50% inhibition of the control pressor response to angiotensin II)", "procedure": "Angiotensin II antagonist activity of the compounds of Formula (I) is assessed by in vitro and in vivo methods. In vitro antagonist activity is determined by the ability of the compounds to compete with ^125 I-angiotensin II for binding to vascular angiotensin II receptors and by their ability to antagonize the contractile response to angiotensin II in the isolated rabbit aorta. In vivo activity is evaluated by the efficacy of the compounds to inhibit- the pressor response to exogenous angiotensin II in conscious rats and to lower blood pressure in a rat model of renin dependent hypertension.\nRats are prepared with indwelling femoral arterial and venous catheters and a stomach tube (Gellai et al., Kidney Int. 15:419, 1979). Two to three days following surgery the rats are placed in a restrainer and blood pressure is continuously monitored from the arterial catheter with a pressure transducer and recorded on a polygraph. The change in mean arterial pressure in response to intravenous injections of […] angiotensin II is compared at various time points prior to and following the administration of the compounds intravenously or orally at doses of 3 to 300 mg/kg. The dose of compound needed to produce 50% inhibition of the control response to angiotensin II (IC50) is used to estimate the potency of the compounds."}
{"molecule": "CCCCc1ncc(CC(=O)N[C@@H](Cc2ccccc2)C(=O)O)n1Cc1ccccc1Cl", "note": "[Example 14, N-[{2-n-Butyl-1-(2-chlorophenyl)methyl-1H-imidazol-5-yl}methylcarbonyl]-L-phenylalanine]", "values": [{"measurement": "ED50", "result": 16, "unit": "mg/kg"}]}
